Measured values from patent US20100210649A1, “PYRIDAZINONES AND FURAN-CONTAINING COMPOUNDS” (Sloan-Kettering Institute for Cancer Research, priority 2006, published 2010).
“And” between values parts separate entries of the source, which are not always exact repeats. Equal values may be shown once. Read-outs that look alike come from different tables or passages of the source.

Legend:
H1975 = assay: Non Small Cell Lung Cancer proliferation assay (Alamar Blue reduction), H1975; type: cell-based, human; details: for inhibition at 10 µM: NCI-H1975, primary screening, read-out: PRIMARY HTS [%] H1975 (percentage inhibition); for inhibition at 10 µM / CONFIRMATION [%] 1975: 10 μM compound in 1% DMSO (v/v); for CONFIRMATION [%] 1975: percentage inhibition
In short: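 Viability after 48 hours of drug exposure at 37° C is scored by Alamar Blue reduction over a subsequent 48 hours, read at 530/590 nm. DMSO-only wells (1% final) define the high control.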

H358 = assay: Non Small Cell Lung Cancer proliferation assay (Alamar Blue reduction), H358; type: cell-based; details: Homo sapiens
Protocol: These cells have a doubling time of 1-2 days. All cell types are adherent and grow in colonies. The cells should be kept at a density between 50,000 cells/mL -500,000 cells/mL to provide for optimum growth and adequate nutrition. The cell line should be maintained at 37° C. in a humidified atmosphere with 5% CO2 in a sterile cell culture incubator.
Non Small Cell Lung Cancer Proliferation Assay.
High Controls for this assay are made by treating Non Small Cell Lung Cancer cells with 5 ul of 10% DMSO. [Final concentration in this assay is 1% DMSO].
Important Note: All compounds for testing in this assay should be done at the final concentration of 1% DMSO.
After addition, the cells are placed in cell culture incubator at 37° C. for 48 hours for complete treatment.
After drug treatment, cytotoxicity is measured by Alamar Blue reduction.
The cells are incubated for 48 hours at 37° C. to complete the Alamar Blue reduction.
The final step in the assay is to measure the amount of Alamar Blue reduction. […] The Alamar Blue fluorescence is measured at an excitation of 530 nm and emission of 590 nm.
For the NSCLC project, the cell based assay was screened against a small molecule library of approximately 200,000 compounds. The compound library is stored in our automated robotic freezer (Biophile) at −20° C. in 100% DMSO. Compound freeze and thaw cycles are kept to a minimum. […] This assay was performed on a fully automated linear track robotic platform (CRS F3 Robot System, Thermo Electron Corp., Ontario, Canada) utilizing several integrated peripherals for plate handling, liquid dispensing, and readout detection. […] The microplates are then placed at 37° C. for 48 hours to complete treatment of cells with compounds. Next, 5 ul of alamar blue was added using a liquid dispenser (Flexprop Precision Dispenser, Perkin Elmer, Mass., USA) and incubated for 48 hours at 37° C. The alamar blue prompt fluorescence was measured on Victor V (Victor^3 V, Perkin Elmer, Mass., USA) and output data files were loaded into ORIS (Oncology Research Informatics System, MSKCC, NY, USA), a screening data acquisition and analysis platform.
(§1) The dose response studies were done with the following standard procedure. First, the cells were counted and dispensed at 250 cells/well into 384-well microplates with compound. The cells were incubated for 48 hours at 37 C to complete treatment, and then alamar blue was added for an additional 48 hours. Finally, alamar blue reduction was measured and the data was loaded into ORIS, our data screening acquisition platform.

H820 = assay: Dose response study (Alamar Blue), H820; type: cell-based; details: Homo sapiens, read-out: IC50 H820
Protocol: (§2) Dose response studies against 34 compounds from the pyridazinone and phenylfuran-carboxamide class were conducted. […] In addition, Tarceva was included in these dose response studies.
as §1

PC9 = assay: Dose response study (Alamar Blue), PC9; type: cell-based; details: Homo sapiens, read-out: IC50 PC9
Protocol: as §2, §1

[1] = Homo sapiens, NCI-H1975, 48 h, H1975, 12 point doubling dilution 10 uM to 5 nM, 48 h treatment, alamar blue additional 48 h, read-out: IC50 H1975
[2] = Homo sapiens, NCI-H1975, phenylfuran-2-carboxamide SAR summary, read-out: IC50(uM) 1975
[3] = NCI-H358, H358, 12 point doubling dilution 10 uM to 5 nM, 48 h treatment, alamar blue additional 48 h, read-out: IC50 H358
[4] = NCI-H820, H820, 12 point doubling dilution 10 uM to 5 nM, 48 h treatment, alamar blue additional 48 h
[5] = PC-9, PC9, 12 point doubling dilution 10 uM to 5 nM, 48 h treatment, alamar blue additional 48 h
[6] = NCI-H358, 48 h, H358, 12 point doubling dilution 10 uM to 5 nM, 48 h treatment, alamar blue additional 48 h, read-out: IC50 H358
[7] = Homo sapiens, NCI-H1975, dose response 10 M to 5 nM, IC50, read-out: Dose Response (uM) H1975
[8] = NCI-H358, read-out: Dose Response (uM) H358

| Structure (SMILES) | IC50 (H1975; [1]) [µM] | IC50 (H1975; [2]) [µM] | inhibition at 10 µM (H1975; Homo sapiens, H1975) [%] | CONFIRMATION [%] 1975 (H1975) | IC50 (H1975; phenylfuran-2-carboxamide SAR summary, read-out: IC50(uM) 1975) [µM] | IC50 (H358; [3]) [µM] | IC50 (H820; [4]) [µM] | IC50 (PC9; [5]) [µM] | IC50 (H358; [6]) [µM] | IC50 (H820; NCI-H820, 48 h) [µM] | IC50 (PC9; PC-9, 48 h) [µM] | IC50 (H1975; [7]) [µM] | IC50 (H358; [8]) [µM] |
| --- | --- | --- | --- | --- | --- | --- | --- | --- | --- | --- | --- | --- | --- |
| Cc1cccc(NC(=O)c2ccc([N+](=O)[O-])o2)c1 [compound 71762] | 4.23 | 1.24 | 74 | 59% and 76% | 1.23 | 1.27 | 3.61 | 1.89 | – | – | – | – | – |
| O=C(Nc1ccc(F)c(Cl)c1)c1ccc([N+](=O)[O-])o1 [compound 87200] | > 10 | 0.44 | 67 | 95% | – | 7.17 | > 10 | 8.67 | – | – | – | – | – |
| Cc1ccc(NC(=O)c2ccc([N+](=O)[O-])o2)cc1 [compound 98697] | 4.57 | 1.09 | 70 | 70% | – | – | – | – | 1.2 | 3.53 | 2.17 | – | – |
| O=C(Nc1ccc(Cl)cc1)c1ccc([N+](=O)[O-])o1 [compound 98698, 5-nitro-furan-2-carboxylic acid (4-chloro-phenyl)-amide] | 2.63 | 0.63 | 74 | 57% | – | – | – | – | 0.81 | 1.83 | 1.58 | – | – |
| COc1nn(-c2cccc(C)c2)c(=O)c(Cl)c1Cl [compound 257028] | 1.18 | – | – | – | – | 1.83 | 0.77 | 2.4 | – | – | – | 0.65 | 0.94 |
| O=c1c(Cl)c(Cl)cnn1-c1ccc(C(F)(F)F)cc1 [compound 267060] | 1.27 | – | – | – | – | 1.39 | 1.48 | 3.49 | – | – | – | 0.69 | 0.29 |
| COc1cccc(-n2ncc(Cl)c(Cl)c2=O)c1 [compound 267061] | 0.31 | – | – | – | – | 0.46 | 0.26 | 0.85 | – | – | – | 0.37 | 0.24 |
| CCc1cccc(-n2ncc(Cl)c(Cl)c2=O)c1 [compound 267062] | 0.47 | – | – | – | – | 0.66 | 0.45 | 1.51 | – | – | – | 0.46 | 0.24 |
| CCCCc1cccc(-n2ncc(Cl)c(Cl)c2=O)c1 [compound 267063] | 6.57 | – | – | – | – | 6.66 | 6.24 | 8.89 | – | – | – | 1.93 | 0.76 |
| Cc1cc(-n2ncc(Cl)c(Cl)c2=O)ccc1Br [compound 267064] | 7.58 | – | – | – | – | 7.65 | 6.72 | > 10 | – | – | – | 0.71 | 0.47 |
| Cc1cc(-n2ncc(Cl)c(Cl)c2=O)ccc1Cl [compound 267065] | > 10 | – | – | – | – | > 10 | > 10 | > 10 | – | – | – | 1.89 | 1.24 |
| O=c1c(Cl)c(Cl)cnn1-c1ccc2c(c1)CCC2 [compound 267066] | 2.23 | – | – | – | – | 2.81 | 2.8 | 5.87 | – | – | – | 0.19 | 0.42 |
| Cc1nc2cc(-n3ncc(Cl)c(Cl)c3=O)ccc2s1 [compound 267067] | > 10 | – | – | – | – | > 10 | 8.25 | > 10 | – | – | – | 0.45 | 1.38 |
| O=c1c(Cl)c(Cl)cnn1-c1ccc2c(c1)OCCO2 [compound 267068] | 0.37 | – | – | – | – | 0.78 | 0.32 | 0.88 | – | – | – | 0.25 | 0.43 |
| O=c1c(Cl)c(Cl)cnn1Cc1ccccc1 [compound 267069] | 3.6 | – | – | – | – | 6.66 | 2.57 | 6.21 | – | – | – | 2.16 | 4.76 |
| Cc1ccc(-n2ncc(Cl)c(Cl)c2=O)cc1Cl [compound 267070] | > 10 | – | – | – | – | > 10 | > 10 | > 10 | – | – | – | 0.91 | 0.97 |
| Cc1cccc(-n2ncc(Br)c(Br)c2=O)c1 [compound 267071] | 0.36 | – | – | – | – | 0.4 | 0.27 | 0.86 | – | – | – | 0.22 | 0.21 |
| O=c1c(Br)c(Br)cnn1-c1cccc(C(F)(F)F)c1 [compound 267072] | 0.93 | – | – | – | – | 0.85 | 0.82 | 2.59 | – | – | – | 0.2 | 0.15 |
| O=c1c(Br)c(Br)cnn1-c1ccccn1 [compound 267073] | 0.16 | – | – | – | – | 0.14 | 0.1 | 0.42 | – | – | – | 0.09 | 0.07 |
| O=c1c(Cl)c(Cl)cnn1-c1ccc(Cl)cc1Cl [compound 267077] | 2.08 | – | – | – | – | 3.22 | 2.68 | > 10 | – | – | – | 0.05 | 0.14 |
| COc1cccc(-n2ncc(Br)c(Br)c2=O)c1 [compound 267083] | 0.24 | – | – | – | – | 0.3 | 0.2 | 0.74 | – | – | – | 0.23 | 0.13 |
| COCCOc1cccc(-n2ncc(Br)c(Br)c2=O)c1 [compound 267084] | 0.21 | – | – | – | – | 0.27 | 0.18 | 0.68 | – | – | – | 0.23 | 0.13 |
| Cc1cccc(-n2ncc(I)c(I)c2=O)c1 [compound 267085] | 0.8 | – | – | – | – | 1.33 | 0.41 | 2.24 | – | – | – | 0.5 | 0.3 |
| O=c1c(Cl)c(Cl)cnn1-c1ccccn1 [compound 267090] | 0.16 | – | – | – | – | 0.21 | 0.14 | 0.47 | – | – | – | 0.2 | 0.06 |
| NCCCOc1cccc(-n2ncc(Br)c(Br)c2=O)c1 [compound 273634] | 0.41 | – | – | – | – | 0.69 | 0.29 | 0.97 | – | – | – | 0.44 | 0.24 |
